According to patent US20180028424A1, “COMPOSITIONS FOR IMPROVING THE HEALTH OF HAIR, SKIN, AND NAILS” (FYBRANDS CORP., priority 2015, published 2018):

Assays:
[1] = solubility of silibinin in water; type: physicochemical
From the text: In certain embodiments, the disclosure provides compositions to deliver the active ingredient to the root bulb of the hair follicle. Silibinin is not soluble in water. Creating a cream formulation could possibly lead to clogging of pores at the site of the hair follicle, which could negatively affect restoration of the follicle. In certain aspects, the present disclosure relates to delivery of silibinin using oil-based formulations. Oil is absorbed into the stratum corneum and deeper layers of the skin where the root bulb cells are located.

[2] = solubility of silibinin in acetone; type: physicochemical; details: dissolved at 40-50° C. in Example 1
Description: Silibinin is soluble in acetone. We evaluated the possibility that silibinin could be first dissolved in acetone and then put into solution with an oil carrier. Since acetone evaporates to completion out of any open system, it could be removed leaving the silibinin in solution. One should keep in mind that acetone is incredibly flammable, and methods for removing acetone should be chosen carefully.
Briefly, a total desired amount of silibinin was dissolved into acetone at moderate temperature (40-50° C.). Capric/capryllic triglyceride was then added with mixing until completely mixed. […] The solution was cooled with stirring. Rosemary EO 1 was added once the temperature was below 50° C., and the product was poured into dispensing containers for use by test subjects.

solubility in water [1]: not soluble
solubility in acetone [2]: soluble
SMILES: COc1cc(C2Oc3cc([C@H]4Oc5cc(O)cc(O)c5C(=O)[C@@H]4O)ccc3OC2CO)ccc1O (some centres unmarked) [Silibinin]
